In ChEMBL document CHEMBL3112424, “Discovery and optimization of pyrimidone indoline amide PI3Kβ inhibitors for the treatment of phosphatase and tensin homologue (PTEN)-deficient cancers” (J Med Chem, 2014):
Converted amounts (≈) assume the structure as drawn.

How the values were obtained:
[1] = Plasma concentration in Balb/c mouse at 100 mg/kg, po measured for 5 hrs; format: ADME, organism-based; design: dose 100 mg/kg, route oral
[2] = target: T1, Phosphatidylinositol 4,5-bisphosphate 3-kinase catalytic subunit beta isoform (Homo sapiens, UniProt P42338); assay: Inhibition of N-terminal ploy-His-tagged human PI3Kbeta expressed in baculovirus-infected sf21 cells using PI(4,5)P2 as substrate after 15 mins by HTRF assay
Target sequence in this assay (P42338 whole entry, canonical isoform): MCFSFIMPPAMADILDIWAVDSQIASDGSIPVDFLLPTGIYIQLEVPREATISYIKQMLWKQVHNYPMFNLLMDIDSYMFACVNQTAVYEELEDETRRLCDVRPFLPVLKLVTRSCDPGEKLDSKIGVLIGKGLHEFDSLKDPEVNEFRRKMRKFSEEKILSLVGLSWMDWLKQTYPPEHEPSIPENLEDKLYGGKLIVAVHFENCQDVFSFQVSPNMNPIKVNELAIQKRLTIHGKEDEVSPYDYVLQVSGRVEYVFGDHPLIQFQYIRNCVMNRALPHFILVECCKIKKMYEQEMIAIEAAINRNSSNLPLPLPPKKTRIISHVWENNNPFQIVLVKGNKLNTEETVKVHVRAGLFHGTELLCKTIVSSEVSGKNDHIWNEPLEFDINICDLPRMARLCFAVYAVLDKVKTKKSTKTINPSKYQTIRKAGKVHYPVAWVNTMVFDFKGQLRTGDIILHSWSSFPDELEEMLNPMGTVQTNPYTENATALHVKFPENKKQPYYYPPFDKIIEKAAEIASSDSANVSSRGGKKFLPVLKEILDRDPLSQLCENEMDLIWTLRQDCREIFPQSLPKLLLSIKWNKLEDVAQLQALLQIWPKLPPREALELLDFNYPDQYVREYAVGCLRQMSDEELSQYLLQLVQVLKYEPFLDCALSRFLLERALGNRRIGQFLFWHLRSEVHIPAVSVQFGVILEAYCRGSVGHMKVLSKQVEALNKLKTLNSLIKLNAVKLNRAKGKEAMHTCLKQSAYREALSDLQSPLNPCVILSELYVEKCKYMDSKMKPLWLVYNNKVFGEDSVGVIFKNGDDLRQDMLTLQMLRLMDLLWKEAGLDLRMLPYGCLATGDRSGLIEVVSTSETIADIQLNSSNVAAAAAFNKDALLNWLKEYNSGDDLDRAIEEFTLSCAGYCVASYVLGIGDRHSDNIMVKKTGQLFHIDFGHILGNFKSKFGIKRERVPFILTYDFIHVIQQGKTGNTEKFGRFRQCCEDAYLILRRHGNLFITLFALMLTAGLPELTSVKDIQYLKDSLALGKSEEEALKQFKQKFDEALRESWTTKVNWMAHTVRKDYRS

[3] = Oral bioavailability in Balb/c mouse plasma at 10 mg/kg by LC-MS/MS analysis; format: ADME, organism-based
[4] = target: Serine/threonine-protein kinase mTOR (Homo sapiens, UniProt P42345); assay: Inhibition of mTOR (unknown origin)
UACC-62 = assay: Antitumor activity against BRAF-V600E/PTEN-deficient human UACC62 cells xenografted in SCID mouse assessed as tumor growth inhibition at 150 mg/kg, po bid measured on day 15; format: functional
[5] = target: Phosphatidylinositol 4-phosphate 3-kinase C2 domain-containing subunit beta (Homo sapiens, UniProt O00750); assay: Inhibition of PI3KC2beta (unknown origin)
Chain of Phosphatidylinositol 4-phosphate 3-kinase C2 domain-containing subunit beta (O00750 whole entry, the tested form may be a part): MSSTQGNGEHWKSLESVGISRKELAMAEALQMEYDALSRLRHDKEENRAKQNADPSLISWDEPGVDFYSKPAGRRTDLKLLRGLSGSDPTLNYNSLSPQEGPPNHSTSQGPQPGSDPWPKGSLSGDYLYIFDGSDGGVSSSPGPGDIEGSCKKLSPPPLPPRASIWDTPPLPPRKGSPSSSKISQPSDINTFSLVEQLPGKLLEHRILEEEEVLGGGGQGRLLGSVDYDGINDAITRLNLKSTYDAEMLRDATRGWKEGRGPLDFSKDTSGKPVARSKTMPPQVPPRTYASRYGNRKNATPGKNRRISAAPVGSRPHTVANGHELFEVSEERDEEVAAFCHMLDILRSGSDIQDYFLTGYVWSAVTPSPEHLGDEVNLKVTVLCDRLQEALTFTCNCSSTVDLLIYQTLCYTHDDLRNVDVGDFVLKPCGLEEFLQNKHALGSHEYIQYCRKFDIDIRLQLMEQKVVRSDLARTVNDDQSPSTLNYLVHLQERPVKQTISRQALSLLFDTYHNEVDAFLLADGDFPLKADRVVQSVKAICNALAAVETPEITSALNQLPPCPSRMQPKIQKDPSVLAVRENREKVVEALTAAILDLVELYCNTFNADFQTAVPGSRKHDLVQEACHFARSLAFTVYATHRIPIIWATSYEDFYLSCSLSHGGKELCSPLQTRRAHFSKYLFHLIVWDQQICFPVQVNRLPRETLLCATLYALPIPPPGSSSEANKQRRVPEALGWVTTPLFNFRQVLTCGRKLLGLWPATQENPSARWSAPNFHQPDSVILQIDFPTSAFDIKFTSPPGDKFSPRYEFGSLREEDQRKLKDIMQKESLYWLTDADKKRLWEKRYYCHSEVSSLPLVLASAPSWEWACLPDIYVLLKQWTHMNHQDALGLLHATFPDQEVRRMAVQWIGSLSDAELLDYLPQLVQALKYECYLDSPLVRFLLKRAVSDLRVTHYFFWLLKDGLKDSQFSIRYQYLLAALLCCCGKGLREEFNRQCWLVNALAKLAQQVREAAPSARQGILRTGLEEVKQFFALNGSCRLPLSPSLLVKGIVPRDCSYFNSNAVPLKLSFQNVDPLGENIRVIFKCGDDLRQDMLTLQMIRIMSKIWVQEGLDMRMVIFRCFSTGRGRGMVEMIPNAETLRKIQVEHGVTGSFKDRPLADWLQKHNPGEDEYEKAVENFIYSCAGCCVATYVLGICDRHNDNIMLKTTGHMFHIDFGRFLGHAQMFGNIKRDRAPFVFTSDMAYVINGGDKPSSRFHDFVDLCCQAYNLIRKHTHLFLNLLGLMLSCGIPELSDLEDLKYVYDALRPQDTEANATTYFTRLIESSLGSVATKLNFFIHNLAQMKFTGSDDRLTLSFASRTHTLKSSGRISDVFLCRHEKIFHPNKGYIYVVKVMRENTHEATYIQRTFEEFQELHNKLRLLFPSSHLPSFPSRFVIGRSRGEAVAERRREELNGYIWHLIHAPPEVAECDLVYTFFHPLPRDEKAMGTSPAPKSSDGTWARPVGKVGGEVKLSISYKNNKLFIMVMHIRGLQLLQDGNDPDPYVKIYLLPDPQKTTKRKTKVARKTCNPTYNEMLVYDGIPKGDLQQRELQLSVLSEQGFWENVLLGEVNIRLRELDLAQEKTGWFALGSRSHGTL

[6] = Cmax in Balb/c mouse plasma at 3 mg/kg, iv by LC-MS/MS analysis; format: ADME, organism-based; design: dose 3 mg/kg, route intravenous
[7] = Tmax in Balb/c mouse plasma at 10 mg/kg, po by LC-MS/MS analysis; format: ADME, organism-based; design: dose 10 mg/kg, route oral
[8] = Solubility of the compound in phosphate buffer at pH 7.4 by HPLC analysis; conditions: buffer
[9] = Cmax in Beagle dog at 3 mg/kg, iv; format: ADME, organism-based, Canis lupus familiaris; design: dose 3 mg/kg, route intravenous; conditions: in vivo
[10] = Clearance in nude rat at 3 mg/kg, iv; format: ADME, organism-based; design: dose 3 mg/kg, route intravenous; conditions: in vivo
[11] = Plasma concentration in Balb/c mouse at 100 mg/kg, po measured for 12 hrs; format: ADME, organism-based; design: dose 100 mg/kg, route oral
[12] = Metabolic stability in human liver microsomes at 5 uM after 20 mins; conditions: liver microsomes
[13] = Oral bioavailability in Beagle dog at 10 mg/kg; format: ADME, organism-based, Canis lupus familiaris; conditions: in vivo
[14] = Tmax in Beagle dog at 10 mg/kg, po; format: ADME, organism-based, Canis lupus familiaris; design: dose 10 mg/kg, route oral; conditions: in vivo
[15] = Cmax in nude rat at 10 mg/kg, po; format: ADME, organism-based; design: dose 10 mg/kg, route oral; conditions: in vivo
[16] = AUC (infinity) in Balb/c mouse plasma at 100 mg/kg, po by LC-MS/MS analysis; format: ADME, organism-based; design: time infinity, dose 100 mg/kg, route oral
[17] = Clearance in Beagle dog at 3 mg/kg, iv; format: ADME, organism-based, Canis lupus familiaris; design: dose 3 mg/kg, route intravenous; conditions: in vivo
[18] = Half life in Beagle dog at 10 mg/kg, po; format: ADME, organism-based, Canis lupus familiaris; design: dose 10 mg/kg, route oral; conditions: in vivo
[19] = Cmax in nude rat at 3 mg/kg, iv; format: ADME, organism-based; design: dose 3 mg/kg, route intravenous; conditions: in vivo
[20] = Plasma concentration in SCID mouse xenografted with PTEN-deficient human PC3 cells at 100 mg/kg, po after 16 hrs; format: ADME, organism-based, PC-3; design: dose 100 mg/kg, route oral
[21] = Plasma concentration in SCID mouse xenografted with PTEN-deficient human PC3 cells at 100 mg/kg, po after 4 hrs; format: ADME, organism-based, PC-3; design: dose 100 mg/kg, route oral
Plasma = assay: Fraction unbound in SCID mouse plasma xenografted with BRAF-V600E/PTEN-deficient human UACC62 cells at 100 mg/kg, po; format: ADME, organism-based, UACC-62; design: dose 100 mg/kg, route oral; conditions: in vivo
[22] = Fraction unbound in SCID mouse plasma xenografted with PTEN-deficient human PC3 cells at 100 mg/kg, po; format: ADME, organism-based, PC-3; design: dose 100 mg/kg, route oral
[23] = Apparent terminal half life in Balb/c mouse plasma at 100 mg/kg, po by LC-MS/MS analysis; format: ADME, organism-based; design: dose 100 mg/kg, route oral; conditions: read-out: betat1/2(app) (converted)
Mus musculus [24] = assay: Toxicity in SCID mouse xenografted with BRAF-V600E/PTEN-deficient human UACC62 cells at 150 mg/kg, po bid; format: organism-based, UACC-62; design: dose 150 mg/kg, route oral; conditions: in vivo
Mus musculus [25] = assay: In vivo inhibition of PI3Kbeta in tumor of po dosed SCID mouse xenografted with BRAF-V600E/PTEN-deficient human UACC62 cells assessed as inhibition of Akt phosphorylation at S473; format: functional, organism-based; conditions: UACC-62
[26] = Volume of distribution at steady state in Beagle dog at 3 mg/kg, iv; format: ADME, organism-based, Canis lupus familiaris; design: dose 3 mg/kg, route intravenous; conditions: in vivo, read-out: Vdss
[27] = Cmax in Beagle dog at 10 mg/kg, po; format: ADME, organism-based, Canis lupus familiaris; design: dose 10 mg/kg, route oral; conditions: in vivo
[28] = target: T1, Phosphatidylinositol 4,5-bisphosphate 3-kinase catalytic subunit beta isoform; conditions: PC-3
Target sequence in this assay (P42338 whole entry, looked up, canonical isoform): as the sequence (P42338 whole entry, canonical isoform) above
Description: Inhibition of PI3Kbeta-mediated Akt phosphorylation at S473 in PTEN-deficient human PC3 cells after 0.5 to 2 hrs by Immunoblotting assay

[29] = Apparent permeability in human Caco2 cells at 5 uM after 20 mins; conditions: Caco-2
Mus musculus [30] = assay: Toxicity in SCID mouse xenografted with PTEN-deficient human PC3 cells assessed as body weight loss at 150 mg/kg, po bid; format: organism-based, PC-3; design: dose 150 mg/kg, route oral; conditions: in vivo
[31] = Oral bioavailability in nude rat at 10 mg/kg; format: ADME, organism-based; conditions: in vivo
[32] = Half life in nude rat at 3 mg/kg, iv; format: ADME, organism-based; design: dose 3 mg/kg, route intravenous; conditions: in vivo
Mus musculus [33] = assay: In vivo inhibition of PI3Kbeta in tumor of SCID mouse xenografted with PTEN-deficient human PC3 cells assessed as inhibition of Akt phosphorylation at S473 at 100 mg/kg, po up to 7 hrs; format: functional; conditions: PC-3, 7 h
[34] = Half life in Beagle dog at 3 mg/kg, iv; format: ADME, organism-based, Canis lupus familiaris; design: dose 3 mg/kg, route intravenous; conditions: in vivo
[35] = Apparent terminal half life in Balb/c mouse plasma at 3 mg/kg, iv by LC-MS/MS analysis; format: ADME, organism-based; design: dose 3 mg/kg, route intravenous; conditions: read-out: betat1/2(app) (converted)
[36] = Cmax in Balb/c mouse plasma at 100 mg/kg, po by LC-MS/MS analysis; format: ADME, organism-based; design: dose 100 mg/kg, route oral
[37] = target: Phosphatidylinositol 4,5-bisphosphate 3-kinase catalytic subunit gamma isoform (Homo sapiens, UniProt P48736); assay: Inhibition of C-terminal ploy-His-tagged human PI3Kgamma expressed in baculovirus-infected sf9 cells using PI(4,5)P2 as substrate after 15 mins by HTRF assay
Chain of Phosphatidylinositol 4,5-bisphosphate 3-kinase catalytic subunit gamma isoform (P48736 whole entry, canonical isoform): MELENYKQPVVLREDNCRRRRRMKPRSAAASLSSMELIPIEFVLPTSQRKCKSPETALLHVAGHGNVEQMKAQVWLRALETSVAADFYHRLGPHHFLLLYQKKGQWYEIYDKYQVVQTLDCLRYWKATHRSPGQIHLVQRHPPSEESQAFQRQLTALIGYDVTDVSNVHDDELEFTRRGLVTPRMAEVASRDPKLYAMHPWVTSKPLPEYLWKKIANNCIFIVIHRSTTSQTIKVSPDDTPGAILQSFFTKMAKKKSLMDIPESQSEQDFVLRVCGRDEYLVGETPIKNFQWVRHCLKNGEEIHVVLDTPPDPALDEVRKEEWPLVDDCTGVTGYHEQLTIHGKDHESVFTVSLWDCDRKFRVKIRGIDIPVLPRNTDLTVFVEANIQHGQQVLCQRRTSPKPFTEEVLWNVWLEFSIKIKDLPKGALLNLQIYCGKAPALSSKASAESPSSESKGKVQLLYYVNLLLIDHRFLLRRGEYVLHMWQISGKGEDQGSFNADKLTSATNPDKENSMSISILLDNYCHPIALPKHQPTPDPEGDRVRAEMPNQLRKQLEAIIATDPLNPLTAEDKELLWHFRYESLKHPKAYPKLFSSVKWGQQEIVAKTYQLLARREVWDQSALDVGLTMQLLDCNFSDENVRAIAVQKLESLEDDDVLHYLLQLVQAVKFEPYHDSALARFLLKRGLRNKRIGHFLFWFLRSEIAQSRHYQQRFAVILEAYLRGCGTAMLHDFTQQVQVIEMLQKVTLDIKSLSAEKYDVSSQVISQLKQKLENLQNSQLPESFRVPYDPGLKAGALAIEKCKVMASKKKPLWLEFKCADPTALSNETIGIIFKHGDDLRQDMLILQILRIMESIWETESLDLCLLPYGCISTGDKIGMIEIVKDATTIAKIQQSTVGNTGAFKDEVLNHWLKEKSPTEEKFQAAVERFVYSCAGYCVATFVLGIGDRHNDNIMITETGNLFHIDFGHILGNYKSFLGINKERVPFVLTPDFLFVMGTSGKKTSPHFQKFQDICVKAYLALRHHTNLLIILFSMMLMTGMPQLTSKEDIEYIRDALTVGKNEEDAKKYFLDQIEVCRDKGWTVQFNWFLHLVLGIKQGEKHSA

Liver microsome = assay: Metabolic stability in dog liver microsomes; format: ADME, Canis lupus familiaris
[38] = Oral bioavailability in Balb/c mouse plasma at 100 mg/kg by LC-MS/MS analysis; format: ADME, organism-based
[39] = Tmax in Balb/c mouse plasma at 100 mg/kg, po by LC-MS/MS analysis; format: ADME, organism-based; design: dose 100 mg/kg, route oral
[40] = AUC (infinity) in Balb/c mouse plasma at 10 mg/kg, po by LC-MS/MS analysis; format: ADME, organism-based; design: time infinity, dose 10 mg/kg, route oral
[41] = Clearance in Balb/c mouse plasma at 3 mg/kg, iv by LC-MS/MS analysis; format: ADME, organism-based; design: dose 3 mg/kg, route intravenous
[42] = target: T1, Phosphatidylinositol 4,5-bisphosphate 3-kinase catalytic subunit beta isoform; assay: Inhibition of PI3Kbeta-mediated Akt phosphorylation at S473 in BRAF-V600E/PTEN-deficient human UACC62 cells; format: cell-based, UACC-62
Target sequence in this assay (P42338 whole entry, canonical isoform): as the sequence (P42338 whole entry, canonical isoform) above

[43] = target: T1, Phosphatidylinositol 4,5-bisphosphate 3-kinase catalytic subunit beta isoform; conditions: UACC-62
Target sequence in this assay (P42338 whole entry, looked up, canonical isoform): as the sequence (P42338 whole entry, canonical isoform) above

[44] = Plasma concentration in SCID mouse xenografted with PTEN-deficient human PC3 cells at 100 mg/kg, po after 1 hr; format: ADME, organism-based, PC-3; design: dose 100 mg/kg, route oral

Structure (SMILES): C[C@H]1Cc2ccccc2N1C(=O)Cc1nc(N2CCOCC2)cc(=O)[nH]1 [SAR-260301]
- concentration at 5 h [1]: > 1000 nM
- IC50 [2]: 0.023 µM
- bioavailability [3]: 30%
- IC50 [4]: > 10 µM
- T/C (UACC-62): 39%
- IC50 [5]: > 1 µM
- Cmax [6]: 1870 ng/mL
- Tmax [7]: 15 min
- solubility [8]: 928 µM (≈ 329 µg/mL)
- Cmax [9]: 4920 ng/mL
- clearance [10]: 56.7 mL/min/kg
- concentration at 12 h [11]: > 100 nM
- remaining at 20 min, 5 µM [12]: 12%
- bioavailability [13]: 67%
- Tmax [14]: 30 min
- Cmax [15]: 1460 ng/mL
- AUC(0-inf) [16]: 11000 ng·h/mL
- clearance [17]: 6.67 mL/min/kg
- half-life [18]: 270 min
- Cmax [19]: 1200 ng/mL
- concentration at 16 h [20]: 26 nM
- concentration at 4 h [21]: 14200 nM
- Cp(f) (Plasma): 1820 nM
- fraction unbound [22]: 0.4
- half-life [23]: 150 min
- Activity (Mus musculus [24]): Non-toxic
- EC50 (Mus musculus [25]): 4.55 µM
- Vd [26]: > 3 L/kg
- Cmax [27]: 4770 ng/mL
- IC90 [28]: 0.002 µM
- Papp at 20 min, 5 µM [29]: 4.8 ×10⁻⁶ cm/s
- Activity (Mus musculus [30]): Non-toxic
- bioavailability [31]: 70%
- half-life [32]: 52.2 min
- inhibition in vivo at 100 mg/kg (Mus musculus [33]): ≥ 50%
- half-life [34]: > 300 min
- half-life [35]: 52.2 min
- Cmax [36]: 8960 ng/mL
- IC50 [37]: 10 µM
- Stability (Liver microsome): 5%
- bioavailability [38]: 55%
- Tmax [39]: 15 min
- AUC(0-inf) [40]: 610 ng·h/mL
- clearance [41]: 83.3 mL/min/kg
- IC50 [42]: 0.06 µM
- IC90 [43]: 2 µM
- concentration at 1 h [44]: 24900 nM
